Assays:
Rattus norvegicus [1] = assay: Anti-inflammatory activity in Sprague-Dawley rat model of carrageenan-induced paw edema assessed as inhibition of paw edema volume at 150 umol/kg, po dosed 1 hr before carrageenan challenge and measured 1 hr post carrageenan challenge; type: functional
Rattus norvegicus [2] = assay: Anti-inflammatory activity in Sprague-Dawley rat model of carrageenan-induced paw edema assessed as inhibition of paw edema volume at 150 umol/kg, po dosed 1 hr before carrageenan challenge and measured 3 hrs post carrageenan challenge; type: functional
Rattus norvegicus [3] = assay: Anti-inflammatory activity in Sprague-Dawley rat model of carrageenan-induced paw edema assessed as inhibition of paw edema volume at 150 umol/kg, po dosed 1 hr before carrageenan challenge and measured 5 hrs post carrageenan challenge; type: functional
[4] = target: T1, Prostaglandin G/H synthase 1 (Ovis aries) (UniProt P05979); assay: Inhibition of ovine COX1 assessed as reduction in PGF2alpha formation at 10 uM incubated for 18 hrs by enzyme immunoassay
T1 sequence (whole entry): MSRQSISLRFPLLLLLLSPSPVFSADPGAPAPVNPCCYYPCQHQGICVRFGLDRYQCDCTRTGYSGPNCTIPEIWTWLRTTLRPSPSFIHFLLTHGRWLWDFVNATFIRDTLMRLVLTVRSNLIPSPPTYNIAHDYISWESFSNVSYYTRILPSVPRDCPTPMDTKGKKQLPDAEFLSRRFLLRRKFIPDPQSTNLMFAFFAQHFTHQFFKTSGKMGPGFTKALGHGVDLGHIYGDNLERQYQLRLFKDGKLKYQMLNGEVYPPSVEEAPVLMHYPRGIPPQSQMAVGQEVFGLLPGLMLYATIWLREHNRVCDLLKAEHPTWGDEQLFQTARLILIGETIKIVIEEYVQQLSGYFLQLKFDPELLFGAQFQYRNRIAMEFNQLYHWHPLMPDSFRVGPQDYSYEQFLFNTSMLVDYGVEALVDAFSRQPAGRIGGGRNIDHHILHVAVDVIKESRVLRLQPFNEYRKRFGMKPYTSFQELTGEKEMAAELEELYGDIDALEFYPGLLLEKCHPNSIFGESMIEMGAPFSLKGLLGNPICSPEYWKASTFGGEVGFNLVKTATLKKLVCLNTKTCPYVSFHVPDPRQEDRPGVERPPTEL

[5] = target: T2, Prostaglandin G/H synthase 1 (Ovis aries, UniProt P05979); assay: Inhibition of ovine COX1 assessed as reduction in PGF2alpha formation incubated for 18 hrs by enzyme immunoassay
T2 sequence (P05979 whole entry): T1 sequence (whole entry)

Row | inhibition [4] | IC50 [5] | Compound | inhibition in vivo at 150 µmol/kg (Rattus norvegicus [1]) | inhibition in vivo at 150 µmol/kg (Rattus norvegicus [2]) | inhibition in vivo at 150 µmol/kg (Rattus norvegicus [3])
1 | – | – | Cc1ccc(-c2cc(C(F)(F)F)nn2-c2ccc(S(N)(=O)=O)cc2)cc1 [CELECOXIB] | 24.4% | 38.8% | 51.4%
2 | 54.2% | – | Cc1nn(-c2ccccc2)c2c1c(=O)oc1ccc(Br)cc12 | – | – | –
3 | 21.3% | – | Cc1ccc(C)c(-n2nc(C)c3c(=O)oc4ccccc4c32)c1 | – | – | –
4 | 39.5% | – | COc1ccc2c(c1)oc(=O)c1c(C)nn(-c3cc(C)ccc3C)c12 | – | – | –
5 | 34.8% | – | COc1ccc2c(c1)oc(=O)c1c(C)nn(-c3ccc(Cl)cc3)c12 | – | – | –
6 | 34.3% | > 30 µM | Cc1nn(-c2ccc(C(F)(F)F)cc2)c2c1c(=O)oc1ccccc12 | 27.6% | 40.4% | 59.9%
7 | 27.3% | – | COc1ccc2c(c1)oc(=O)c1c(C)nn(-c3ccc(Br)cc3)c12 | – | – | –
8 | 38.2% | – | COc1ccc2c(c1)oc(=O)c1c(C)nn(-c3ccccc3C(F)(F)F)c12 | – | – | –
9 | 30.5% | – | Cc1nn(-c2ccc(Cl)cc2Cl)c2c1c(=O)oc1ccccc12 | – | – | –
10 | 39.2% | – | Cc1ccc(C)c(-n2nc(C)c3c(=O)oc4ccc(Cl)cc4c32)c1 | – | – | –
11 | 34.6% | – | Cc1nn(-c2ccccc2C(F)(F)F)c2c1c(=O)oc1ccccc12 | – | – | –
12 | 28.3% | > 30 µM | Cc1nn(-c2ccc(F)cc2)c2c1c(=O)oc1ccccc12 | 24.6% | 39.8% | 55.6%
13 | 47.5% | > 30 µM | Cc1nn(-c2ccc(Br)cc2)c2c1c(=O)oc1ccccc12 | 14.2% | 27.8% | 37%
14 | 43.2% | – | COc1ccc2c(c1)oc(=O)c1c(C)nn(-c3ccccc3)c12 | – | – | –
15 | 43.8% | – | Cc1nn(-c2ccccc2)c2c1c(=O)oc1ccc(Cl)cc12 | – | – | –
16 | 33.2% | > 30 µM | Cc1nn(-c2ccc(C(F)(F)F)cc2)c2c1c(=O)oc1ccc(Cl)cc12 | 23.3% | 36.1% | 57.8%
17 | 33.2% | > 30 µM | COc1ccc2c(c1)oc(=O)c1c(C)nn(-c3ccc(C(F)(F)F)cc3)c12 | 21.7% | 32.2% | 43.7%
18 | 34.8% | – | COc1ccc2c(c1)oc(=O)c1c(C)nn(-c3ccc(F)cc3)c12 | – | – | –
19 | 43.7% | > 30 µM | Cc1nn(-c2ccc(Cl)cc2)c2c1c(=O)oc1ccccc12 | 21.3% | 35.2% | 49.4%
20 | 48.1% | > 30 µM | Cc1nn(-c2ccccc2)c2c1c(=O)oc1ccccc12 | 19.3% | 30.1% | 38.2%

Reference: ChEMBL document CHEMBL3352727, “Synthesis, biological evaluation and docking analysis of 3-methyl-1-phenylchromeno[4,3-c]pyrazol-4(1H)-ones as potential cyclooxygenase-2 (COX-2) inhibitors” (Bioorg Med Chem Lett, 2014)
